Reference: patent publication EP0628046B1, “TRIAZOLOPYRIMIDIN DERIVATIVES AS ANTIOTENSIN II RECEPTOR ANTAGONISTS” (LABORATOIRES UPSA, priority 1992, dated 1993)

What was measured:
[1] = tested on: cellules musculaires lisses d'aortes de rat (CMLV); assay: Inhibition of PDGF-induced cell proliferation (3H-thymidine incorporation) in rat aortic smooth muscle cells; assay type: cell-based; details: 1E - 4M; 1 h pretreatment, 22 h PDGF stimulation
Procedure: B. Mesure de l'inhibition de la prolifération cellulaire induite par les facteurs de croissance (exemple : le Platelet-Derived Growth Factor ou PDGF) dans les cellules musculaires lisses d'aortes de rat
L'inhibition de la prolifération cellulaire induite par un facteur de croissance (exemple : le PDGF) est évaluée par mesure de l'incorporation de 3H-thymidine dans les cellules musculaires lisses d'aortes de rat (CMLV).
Les CMLV sont cultivées à 37°C, en 5 % C02, jusqu'à la sous-confluence puis placées pendant 24 heures en quiescence dans un milieu pauvre en sérum. Elles sont ensuite prétraitées pendant une heure par la molécule à tester (10^-4M) puis stimulées pendant 22 heures par un facteur de croissance (exemple : le PDGF). L'incorporation de 3H-thymidine est effectuée pendant les 4 dernières heures. Toutes ces étapes sont effectuées à 37°C, en 5 % CO2. La réaction est terminée par aspiration du milieu réactionnel, détachement des cellules, puis filtration des cellules lysées à travers des filtres en fibres de verre.
Les résultats sont exprimés en pourcentage d'inhibition de la stimulation d'incorporation de 3H-thymidine due à l'action du facteur de croissance.

[2] = tested on: récepteurs surrénaliens de l'angiotensine Il; assay: Displacement of [125I]-SIAII radioligand from adrenal angiotensin II receptors (rat adrenal homogenate); assay type: binding; details: 60 min at 25°C
Description: L'affinité des produits des exemples pour les récepteurs de l'angiotensine Il est évaluée par technique de déplacement d'un radioligand spécifiquement fixé sur les récepteurs surrénaliens de l'angiotensine Il, chez le rat.
Une aliquote d'un homogénat de surrénales de rat incube en présence d'une concentration unique de [1251] - SIAII (Sar1, Tyr4, Ile8 - angiotensine il), antagoniste des récepteurs de l'angiotensine Il, et de deux concentrations d'agents compétiteurs (10^-5 M, 10^-7 M) durant 60 min à 25°C.
La réaction est achevée par ajout de tampon, puis rapide filtration à travers des filtres de papier de verre. La liaison non spécifique est déterminée en présence d'angiotensine II.
Les résultats sont exprimés, pour les concentrations testées, en pourcentage de déplacement du radioligand spécifiquement fixé sur les récepteurs surrénaliens de l'angiotensine il.

Compound | % inhibition de l'incorporation de 3H-thymidine induite par le PDGF [1] [%] | % de déplacement du ligand marqué ([2]; competitor 1E-5M, 10 µM) [%] | % de déplacement du ligand marqué ([2]; competitor 1E-7M, 0.1 µM) [%]
7-N,N-diethylamino-5-propyl-6-[(2'-(1-H-tétrazol-5-yl) biphényl-4-yl) méthyl]-1,2,4-triazolo [1,5-a] pyrimidine [Exemple 69] | 100 | 69 | 19
CCCc1nc2ncnn2c(O)c1Cc1ccc(-c2ccccc2-c2nnn[nH]2)cc1 [Exemple 62, 7-hydroxy-5-propyl-6-[(2'-(1-H-tétrazol-5-yl)biphényl-4-yl)méthyl]-1,2,4-triazolo [1,5-a]pyrimidine] |  | 65 | 52
CCCc1c(Cc2ccc(-c3ccccc3-c3nnn[nH]3)cc2)c(O)nc2ncnn12 [Exemple 63, 5-hydroxy-7-propyl-6-[(2'-(1-H-tétrazol-5-yl)biphényl-4-yl)méthyl]-1,2,4-triazolo [1,5-a] pyrimidine] |  | 61 | 52
CCCc1nc2nncn2c(O)c1Cc1ccc(-c2ccccc2-c2nnn[nH]2)cc1 [Exemple 65, 5-hydroxy-7-propyl-6-[(2'-(1-H-tétrazol-5-yl)biphényl-4-yl)méthyl]-1,2,4 triazolo [4,3-a] pyrimidine] |  | 63 | 47
CCCc1nc2nc(CC)nn2c(O)c1Cc1ccc(-c2ccccc2-c2nnn[nH]2)cc1 [Exemple 68, 2-éthyl-7-hydroxy-5-propyl-6-[(2'-(1-H-tétrazol-5-yl)biphényl-4-yl)méthyl]-1,2,4-triazolo [1,5-a] pyrimidine] |  | 69 | 59
CCCc1c(Cc2ccc(-c3ccccc3-c3nnn[nH]3)cc2)c(O)nc2nc(N)nn12 [Exemple 75, 2-amino-5-hydroxy-7-propyl-6-[(2'-(1-H-tétrazol-5-yl)biphényl-4-yl)méthyl]-1,2,4-triazolo [1,5-a] pyrimidine] |  | 61 | 60
CCCc1c(Cc2ccc(-c3ccccc3-c3nnn[nH]3)cc2)c(N(CC)CC)nc2ncnn12 [Exemple 76, 5-N,N-diéthylamino-7-propyl-6-[(2'-(1-H-tétrazol-5-yl)biphényl-4-yl)méthyl]-1,2,4-triazolo [1,5-a] pyrimidine] |  | 63 | 28
CCCc1c(Cc2ccc(-c3ccccc3-c3nnn[nH]3)cc2)c(N)nc2ncnn12 [Exemple 77, 5-amino-7-propyl-6-[(2'-(1-H-tétrazol-5-yl)biphényl-4-yl)méthyl]-1,2,4-triazolo [1,5-a] pyrimidine] |  | 63 | 31
CCCc1c(Cc2ccc(-c3sccc3-c3nnn[nH]3)cc2)c(O)nc2ncnn12 [Exemple 79, 5-hydroxy-7-propyl-6-[4-[3-(1-H-tétrazol-5-yl)-2-thiényl]benzyl]-1,2,4-triazolo [1,5-a] pyrimidine] |  | 58 | 26
CCCCc1c(Cc2ccc(-c3ccccc3-c3nnn[nH]3)cc2)c(O)nc2nc(C)nn12 [Exemple 82, 7-butyl-5-hydroxy-2-méthyl-6-[(2'(1-H-tétrazol-5-yl)biphényl-4-yl)méthyl]-1,2,4-triazolo [1,5-a] pyrimidine] |  | 58 | 11
